Here are results for three compounds from US9121801B2, “Methods and devices for cellular analysis” (BioMarker Strategies, LLC, priority 2007, dated 2015).

Like-named read-outs stand apart in the source and are kept apart here.

In test [1] the test system is FOS mRNA. The following applies: in culture; susceptible cell lines A431, CAL27, and HN11; cited from earlier work.
For the next test, the system named is FOS expression. The following applies: 14 days treatment, cited from earlier work.
Test [2] deals with FOS mRNA. As to the kind of experiment: FOS mRNA induction by quantitative RT-PCR in MCF-7 cells. It is filed as cell-based, human. The following applies: 100 ng/ml of EGF ligand, incubation 0-45 minutes. How it is done:
A functional measurement of cellular activation includes FOS mRNA induction determined by quantitative RT-PCR. FOS is an early response gene associated with the EGFR pathway. In an experiment, MCF-7 cells were grown in normal growth conditions in 6 well plates to 80% confluency. Cells were gently scraped and exposed to increasing shear forces (0-800 dyne/cm^2 through the Harvard Pipetter) in addition to increasing incubation times (0-45 minutes) in the presence or absence of 100 ng/ml of EGF ligand (Sigma) prior to RNA extraction. FOS mRNA induction peaks at 30-45 minutes and returns to basal levels in approximately 60 minutes. FOS induction is also stimulated as a result of incubation with EGF ligand. […] See FIGS. 17 and 18 for a graphical depiction of the results obtained.

[3] abbreviates: EGFR-sensitive A431, CAL27, and HN11 xenograft tumors, gefitinib (A431), erlotinib (CAL27, HN11).
Setting [4] is: resistant strains, xenografts, gefitinib (HuCCT1), erlotinib (Hep2).

Consider `COc1cc2ncnc(Nc3ccc(F)c(Cl)c3)c2cc1OCCCN1CCOCC1` [gefitinib], for which the “FOS mRNA levels” value in the test with FOS mRNA [1] is given as “decrease FOS mRNA levels”. Further, the “increase in FOS expression in vivo” value is “abrogate the increase in FOS expression” with FOS expression (setting [3]) and “not in resistant strains” in the test with FOS expression (setting [4]).
On to `C#Cc1cccc(Nc2ncnc3cc(OCCOC)c(OCCOC)cc23)c1` [erlotinib], for which the “FOS mRNA levels” value in the test on FOS mRNA [1] is “decrease FOS mRNA levels”. For the same compound, the “increase in FOS expression in vivo” value in the test with FOS expression (setting [3]) is “abrogate the increase in FOS expression”; with FOS expression (setting [4]), “not in resistant strains”.
Take “EGF ligand: growth factor, tumor-cell stimulatory ligand (Sigma) (NSDSECPLSHDGYCLHDGVCMYIEALDKYACNCVVGYIGERCQYRDLKWWELR; Epidermal growth factor; UniProt P01133 971-1023, looked up)”: the FOS induction entry with FOS mRNA [2] is recorded as “stimulated”.
